In the supplement of paper PMC10307832:

How the values were obtained:
Test in all cases: relative viability (nuclei count vs DMSO), 5 days (fraction); higher = more cells survive
[1] = compound: CC1=C(C(=NN1)C)CC2=C(C3=C(S2)N(C(=O)N(C3=O)C)CC(C)C)C(=O)N4C[C@@H](CO4)O + CC(C)C[C@H](NC(=O)[C@H](Cc1ccccc1)NC(=O)c1cnccn1)B(O)O [Bortezomib] (partner 0.002 µM)
Method in brief: (§1)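 Lung cancer cell lines in 1536-well plates were dosed by pin tool the day after seeding, either with one drug alone or with a fixed anchor-drug dose plus five library-drug doses (not always all listed) in √10 steps. After 5 days, cells were fixed and their nuclei stained in one step (final 0.05% Triton X-100, 1% formaldehyde, 1 ug/ml Hoechst), then counted on 4× images. Relative viability is the nuclei count in treated wells divided by that in vehicle wells. Values are medians of duplicate plates.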

[2] = compound: CC1=C(C(=NN1)C)CC2=C(C3=C(S2)N(C(=O)N(C3=O)C)CC(C)C)C(=O)N4C[C@@H](CO4)O + CC1(C)CCC(c2ccc(Cl)cc2)=C(CN2CCN(c3ccc(C(=O)NS(=O)(=O)c4ccc(N[C@H](CCN5CCOCC5)CSc5ccccc5)c(S(=O)(=O)C(F)(F)F)c4)cc3)CC2)C1 [Navitoclax] (partner 0.5 µM)
Method in brief: as §1

[3] = compound: CC1=C(C(=NN1)C)CC2=C(C3=C(S2)N(C(=O)N(C3=O)C)CC(C)C)C(=O)N4C[C@@H](CO4)O + Nc1nc2[nH]cc(CCc3ccc(C(=O)N[C@@H](CCC(=O)O)C(=O)O)cc3)c2c(=O)[nH]1 [Pemetrexed] (partner 0.2 µM)
Method in brief: as §1

IDH-C35 + Phenformin = compound: Cc1ccccc1C(C(=O)NC1CCCCC1)N(C(=O)Cn1ccnc1C)c1cccc(F)c1 [IDH-C35] + N=C(N)NC(=N)NCCc1ccccc1 [Phenformin] (partner 250 µM)
Method in brief: as §1

Cell Line | relative viability ([1]; first compound 0.0025 µM) | relative viability ([1]; first compound 0.007906 µM) | relative viability ([1]; first compound 0.07906 µM) | relative viability ([1]; first compound 0.25 µM) | relative viability ([2]; first compound 0.0025 µM) | relative viability ([2]; first compound 0.007906 µM) | relative viability ([2]; first compound 0.07906 µM) | relative viability ([2]; first compound 0.25 µM) | relative viability ([3]; first compound 0.0025 µM) | relative viability ([3]; first compound 0.007906 µM) | relative viability ([3]; first compound 0.025 µM) | relative viability ([3]; first compound 0.07906 µM) | relative viability ([3]; first compound 0.25 µM) | relative viability (IDH-C35 + Phenformin; first compound 0.08 µM) | relative viability (IDH-C35 + Phenformin; first compound 0.253 µM) | relative viability (IDH-C35 + Phenformin; first compound 0.8 µM) | relative viability (IDH-C35 + Phenformin; first compound 2.53 µM) | relative viability (IDH-C35 + Phenformin; first compound 8 µM) | relative viability ([1]; first compound 0.025 µM) | relative viability ([2]; first compound 0.025 µM)
ChaGo-K-1 | 0.906 | 0.859 | 1.11 | 1.35 | 0.996 | 0.903 | 1.21 | 1.5 | 0.26 | 0.261 | 0.261 | 0.254 | 0.249 | 0.482 | 0.473 | 0.511 | 0.465 | 0.531 |  | 
EBC-1 | 0.602 | 0.553 | 0.639 | 0.648 | 0.473 | 0.426 | 0.498 | 0.494 |  |  |  |  |  |  |  |  |  |  | 0.588 | 0.485
EKVX | 1.02 | 1.33 | 0.992 | 1.03 | 1 | 1.04 | 0.907 | 0.933 | 0.365 | 0.429 | 0.412 | 0.293 | 0.422 | 0.245 | 0.219 | 0.227 | 0.229 | 0.189 | 1.07 | 0.988
EMC-BAC-2 | 1.15 | 1.15 | 1.06 | 1.1 | 1.16 | 1.14 | 1.16 | 1.38 | 0.46 | 0.468 | 0.415 | 0.44 | 0.454 | 0.5 | 0.584 | 0.583 | 0.508 | 0.493 | 1.04 | 1.16
EPLC-272H | 0.919 | 0.874 | 1.01 | 0.925 | 1.17 | 1.26 | 1.08 | 1.28 | 0.356 | 0.333 | 0.41 | 0.301 | 0.348 | 0.33 | 0.275 | 0.314 | 0.294 | 0.296 | 0.971 | 1.07
H3255 | 0.819 | 0.79 | 0.758 | 1.02 | 0.562 | 0.542 | 0.487 | 0.568 | 0.632 | 0.576 | 0.496 | 0.618 | 0.563 | 0.381 | 0.38 | 0.365 | 0.363 | 0.344 | 0.734 | 0.516
HARA | 1.21 | 1.15 | 0.979 | 1.1 | 1.26 | 1.2 | 1.1 | 1.15 | 0.218 | 0.215 | 0.262 | 0.273 | 0.255 | 0.522 | 0.461 | 0.435 |  | 0.386 | 1 | 1.07
HCC-15 | 1 | 0.945 | 1.02 | 1.2 | 0.735 | 0.725 | 0.698 | 0.675 | 0.214 | 0.214 | 0.225 | 0.215 | 0.211 | 0.521 | 0.464 | 0.501 |  | 0.45 | 0.979 | 0.712
HCC-44 | 0.901 | 0.904 | 0.893 | 0.797 | 0.925 | 1.08 | 0.892 | 1.19 | 0.633 | 0.643 | 0.675 | 0.599 | 0.694 | 0.227 | 0.293 | 0.254 | 0.166 | 0.182 | 0.9 | 1.04
